Test system: patient with a severe form of schizophrenia
Assay: Case study: treatment of a patient with a severe form of schizophrenia with a GnRH-analogue
Assay type: in vivo, human
Description: 3. […] The patient had previously been treated with various dopamine receptor antagonists without any major improvement.
The GnRH-analogue triptorelin is available in a pharmaceutical preparation (Decapeptyl® Depot). In the use of this preparation, an injection is administered containing triptorelin embonate in a dose corresponding to 3.75 mg triptorelin. Injections with this dose are given intramuscularly. They should be repeated every fourth week from the first injection.
A detailed case study of the treatment of a patient with a severe form of schizophrenia is disclosed in the following, as supporting evidence of the effect of the method.
They had previously by other psychiatrists been given traditional treatment, for several years, without any major improvement in the symptoms of schizophrenia.
The situation when the patient came to the clinic was that they had sickness pension since more than twenty years. Their contacts with other persons were highly restraint. […] The clinical diagnosis was that they suffered from a very serious form of schizophrenia. They had no signs of any other mental illness or personality disorder. Thus, it was a clearly defined case of schizophrenia.
Certain symptoms of androgenic hyperactivity such as a male pattern baldness and frequent sexual delusions were also found at the initial examination.
An endocrinological investigation was performed, based upon their symptoms of androgenic hyperactivity. This disclosed a low blood concentration of free testosterone. Since the patient had symptoms of androgenic hyperactivity this laboratory finding could, however, not be a symptom of a low androgenic activity. Instead, the interpretation of this laboratory finding was that it was a sign of a compensatory reduction in the synthesis and release of testosterone occurring as a consequence of an increased androgenic activity in the brain.
During long periods of time the patient had been treated with the drugs which presently are considered to have the best effect against schizophrenia.
In order to overcome the sexual delusions, treatment with the long-acting GnRH-analogue triptorelin (Decapeptyl® Depot) was given every fourth week as deep intramuscular depot injections with a dose corresponding to 1.75 mg triptorelin in each injection. Initially, they were also treated with flutamid in order to prevent a transient increase in androgenic activity.
It is obvious that the dramatic improvement of the patient was caused by the treatment with a GnRH-analogue.

[1] = same patient and regimen, after another three months (five months in total)

Compound: CC(C)C[C@H](NC(=O)[C@@H](Cc1c[nH]c2ccccc12)NC(=O)[C@H](Cc1ccc(O)cc1)NC(=O)[C@H](CO)NC(=O)[C@H](Cc1c[nH]c2ccccc12)NC(=O)[C@H](Cc1c[nH]cn1)NC(=O)[C@@H]1CCC(=O)N1)C(=O)N[C@@H](CCCNC(=N)N)C(=O)N1CCC[C@H]1C(=O)NCC(N)=O [triptorelin]
- clinical improvement of schizophrenia (one patient, very severe schizophrenia, after six months of treatment, previously dopamine receptor antagonists without major improvement): dramatically improved
- patient's condition (schizophrenia symptoms) (person, Decapeptyl Depot i.m. every fourth week, dose corresponding to 1.75 mg triptorelin, initially with flutamid, after two months treatment): began to feel better
- delusions [1]: markedly reduced
- hallucinations [1]: all hallucinations had disappeared
- patient's condition (schizophrenia symptoms) [1]: dramatically better
